Reference: PubChem BioAssay (NCI)
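Compound exposure: 48 hours, 5 concentrations, 96-well plates. Definition used: TGI = concentration required for complete inhibition of growth.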

Assays:
Assay in all cases: NCI-60 cell line screen, 48 h
OVCAR-8 ovarian = tested on: OVCAR-8 ovarian
MOLT-4 leukemia = tested on: MOLT-4 leukemia
KM20L2 colon = tested on: KM20L2 colon
HCT-15 colon = tested on: HCT-15 colon
HOP-92 NSCLC = tested on: HOP-92 NSCLC
HOP-62 NSCLC = tested on: HOP-62 NSCLC
NCI-H23 lung = tested on: NCI-H23 lung
UO-31 renal = tested on: UO-31 renal
SF-539 CNS = tested on: SF-539 CNS
SK-MEL-28 melanoma = tested on: SK-MEL-28 melanoma
COLO 205 colon = tested on: COLO 205 colon
EKVX NSCLC = tested on: EKVX NSCLC
DLD-1 colon = tested on: DLD-1 colon
UACC-62 melanoma = tested on: UACC-62 melanoma
IGROV1 ovarian = tested on: IGROV1 ovarian
TK-10 renal = tested on: TK-10 renal
SR leukemia = tested on: SR leukemia
RXF-631 renal = tested on: RXF-631 renal
KM12 colon = tested on: KM12 colon
HCC-2998 colon = tested on: HCC-2998 colon
CCRF-CEM leukemia = tested on: CCRF-CEM leukemia
SNB-78 CNS = tested on: SNB-78 CNS
U251 CNS = tested on: U251 CNS
XF 498 CNS = tested on: XF 498 CNS
NCI-H460 lung = tested on: NCI-H460 lung
A549 NSCLC = tested on: A549 NSCLC
K-562 leukemia = tested on: K-562 leukemia
A498 renal = tested on: A498 renal
SF-295 CNS = tested on: SF-295 CNS
M14 melanoma = tested on: M14 melanoma
SW-620 colon = tested on: SW-620 colon
UACC-257 melanoma = tested on: UACC-257 melanoma
M19-MEL melanoma = tested on: M19-MEL melanoma
LOX IMVI melanoma = tested on: LOX IMVI melanoma
RPMI-8226 leukemia = tested on: RPMI-8226 leukemia
HT29 colon = tested on: HT29 colon
ACHN renal = tested on: ACHN renal
SK-OV-3 ovarian = tested on: SK-OV-3 ovarian
786-0 renal = tested on: 786-0 renal
HL-60(TB) leukemia = tested on: HL-60(TB) leukemia
HCT-116 colon = tested on: HCT-116 colon
OVCAR-5 ovarian = tested on: OVCAR-5 ovarian
MALME-3M melanoma = tested on: MALME-3M melanoma
OVCAR-4 ovarian = tested on: OVCAR-4 ovarian
RXF 393 renal = tested on: RXF 393 renal
OVCAR-3 ovarian = tested on: OVCAR-3 ovarian
SK-MEL-5 melanoma = tested on: SK-MEL-5 melanoma
CAKI-1 renal = tested on: CAKI-1 renal
SN12C renal = tested on: SN12C renal
NCI-H522 lung = tested on: NCI-H522 lung
SNB-19 CNS = tested on: SNB-19 CNS
LXFL 529 NSCLC = tested on: LXFL 529 NSCLC
HOP-18 NSCLC = tested on: HOP-18 NSCLC
SF-268 CNS = tested on: SF-268 CNS
DMS 114 small cell lung = tested on: DMS 114 small cell lung
SNB-75 CNS = tested on: SNB-75 CNS
NCI-H226 lung = tested on: NCI-H226 lung

Measured: TGI

O=C(Nc1ccc(Cl)cc1Cl)C(=O)C(C(=O)c1ccncc1)C1OC(=O)c2ccccc21 (configuration not stated)
> 100 µM: all assays above
